Data: patent US8097722B2 (priority 2008, dated 2012)

Tests used:
liver PMPMEase = assay type: biochemical, porcine
brain PMPMEase = assay type: biochemical, porcine
Note: test concentration or dose not given here.

For `COP(=S)(OC)Oc1ccc(Sc2ccc(OP(=S)(OC)OC)cc2)cc1` [Abate], the “Liver Mean (mean percent inhibition relative to the controls)” value (liver PMPMEase) was 80% and the “Brain Mean (mean percent inhibition relative to the controls)” value (brain PMPMEase) was 59%.

In the case of `COP(=S)(OC)SCn1nnc2ccccc2c1=O` [Azinphos-M], the “Liver Mean (mean percent inhibition relative to the controls)” value (liver PMPMEase) is reported as 47% and the “Brain Mean (mean percent inhibition relative to the controls)” value (brain PMPMEase) is reported as 73%.

In the case of `CCOP(=S)(OCC)Oc1cc(Cl)c(Br)cc1Cl` [Bromophos-E], the “Liver Mean (mean percent inhibition relative to the controls)” value (liver PMPMEase) is reported as 76% and the “Brain Mean (mean percent inhibition relative to the controls)” value (brain PMPMEase) is reported as 68%.

`CCOP(=S)(OCC)SCSc1ccc(Cl)cc1` [Carbophenothion] was tested, and the “Liver Mean (mean percent inhibition relative to the controls)” value (liver PMPMEase) was 49% and the “Brain Mean (mean percent inhibition relative to the controls)” value (brain PMPMEase) was 55%.

With `CCOP(=S)(OCC)SCCl` [Chlormefos] the “Liver Mean (mean percent inhibition relative to the controls)” value (liver PMPMEase) was 86% and the “Brain Mean (mean percent inhibition relative to the controls)” value (brain PMPMEase) was 65%.

With `CCOP(=S)(OCC)ON=C(C#N)c1ccccc1Cl` [Chlorphoxim] the “Liver Mean (mean percent inhibition relative to the controls)” value (liver PMPMEase) was 100% and the “Brain Mean (mean percent inhibition relative to the controls)” value (brain PMPMEase) was 55%.

With `CCOP(=S)(OCC)Oc1nc(Cl)c(Cl)cc1Cl` [Chlorpyriphos] the “Liver Mean (mean percent inhibition relative to the controls)” value (liver PMPMEase) was 100% and the “Brain Mean (mean percent inhibition relative to the controls)” value (brain PMPMEase) was 67%.

`CCOP(=S)(OCC)Oc1cc(Cl)c(SC)cc1Cl` [Chlorthiophos] was tested, and the “Liver Mean (mean percent inhibition relative to the controls)” value (liver PMPMEase) was 52% and the “Brain Mean (mean percent inhibition relative to the controls)” value (brain PMPMEase) was 22%.

In the case of `CCOP(=S)(OCC)Oc1ccc2c(C)c(Cl)c(=O)oc2c1` [Coumaphos], the “Liver Mean (mean percent inhibition relative to the controls)” value (liver PMPMEase) is reported as 46% and the “Brain Mean (mean percent inhibition relative to the controls)” value (brain PMPMEase) is reported as 62%.

With `COP(=S)(Oc1ccc(C#N)cc1)c1ccccc1` (stereo not drawn) [Cyamophenphos] the “Liver Mean (mean percent inhibition relative to the controls)” value (liver PMPMEase) was 53% and the “Brain Mean (mean percent inhibition relative to the controls)” value (brain PMPMEase) was 52%.

For `COP(=S)(OC)Oc1ccc(C#N)cc1` [Cyanophos], the “Liver Mean (mean percent inhibition relative to the controls)” value (liver PMPMEase) was 89% and the “Brain Mean (mean percent inhibition relative to the controls)” value (brain PMPMEase) was 65%.

In the case of `CCSCCSP(=O)(OC)OC` [Demeton-S-M], the “Liver Mean (mean percent inhibition relative to the controls)” value (liver PMPMEase) is reported as 12% and the “Brain Mean (mean percent inhibition relative to the controls)” value (brain PMPMEase) is reported as 31%.

In the case of `CCOP(=O)(OCC)SCCSCC` [Demeton-S], the “Liver Mean (mean percent inhibition relative to the controls)” value (liver PMPMEase) is reported as 96% and the “Brain Mean (mean percent inhibition relative to the controls)” value (brain PMPMEase) is reported as 62%.

With `CCOP(=S)(OCC)SC(CCl)N1C(=O)c2ccccc2C1=O` (stereo not drawn) [Dialifos] the “Liver Mean (mean percent inhibition relative to the controls)” value (liver PMPMEase) was 96% and the “Brain Mean (mean percent inhibition relative to the controls)” value (brain PMPMEase) was 52%.

With `CCOP(=S)(OCC)Oc1cc(C)nc(C(C)C)n1` [Diazinon] the “Liver Mean (mean percent inhibition relative to the controls)” value (liver PMPMEase) was 95% and the “Brain Mean (mean percent inhibition relative to the controls)” value (brain PMPMEase) was 31%.

With `CCOP(=S)(OCC)Oc1ccc(Cl)cc1Cl` [Dichlofenthion] the “Liver Mean (mean percent inhibition relative to the controls)” value (liver PMPMEase) was 56% and the “Brain Mean (mean percent inhibition relative to the controls)” value (brain PMPMEase) was “NO INHIBITION”.

For `COP(=O)(OC)OC=C(Cl)Cl` [Dichlorvos], the “Liver Mean (mean percent inhibition relative to the controls)” value (liver PMPMEase) was 83% and the “Brain Mean (mean percent inhibition relative to the controls)” value (brain PMPMEase) was 81%.

`CNC(=O)CSP(=S)(OC)OC` [Dimethoate] was tested, and the “Liver Mean (mean percent inhibition relative to the controls)” value (liver PMPMEase) was 12%.

For `CCOP(=S)(OCC)SC1OCCOC1SP(=S)(OCC)OCC` (stereo not drawn) [Dioxathion], the “Liver Mean (mean percent inhibition relative to the controls)” value (liver PMPMEase) was 57% and the “Brain Mean (mean percent inhibition relative to the controls)” value (brain PMPMEase) was 15%.

With `CCOP(=S)(OCC)SCCSCC` [Disulfoton] the “Liver Mean (mean percent inhibition relative to the controls)” value (liver PMPMEase) was 38% and the “Brain Mean (mean percent inhibition relative to the controls)” value (brain PMPMEase) was “NO INHIBITION”.

With `CCOP(=S)(OCC)SCSP(=S)(OCC)OCC` [Ethion] the “Liver Mean (mean percent inhibition relative to the controls)” value (liver PMPMEase) was 92% and the “Brain Mean (mean percent inhibition relative to the controls)” value (brain PMPMEase) was “NO INHIBITION”.

For `CCOc1cc(OP(=S)(OC)OC)nc(CC)n1` [Etrimfos], the “Liver Mean (mean percent inhibition relative to the controls)” value (liver PMPMEase) was 100% and the “Brain Mean (mean percent inhibition relative to the controls)” value (brain PMPMEase) was 78%.

For `COP(=S)(OC)Oc1ccc(S(=O)(=O)N(C)C)cc1` [Famphur], the “Liver Mean (mean percent inhibition relative to the controls)” value (liver PMPMEase) was 71% and the “Brain Mean (mean percent inhibition relative to the controls)” value (brain PMPMEase) was 60%.

In the case of `COP(=S)(OC)Oc1ccc([N+](=O)[O-])c(C)c1` [Fenitrothion], the “Liver Mean (mean percent inhibition relative to the controls)” value (liver PMPMEase) is reported as 98% and the “Brain Mean (mean percent inhibition relative to the controls)” value (brain PMPMEase) is reported as 75%.

`CCOP(=S)(OCC)Oc1ccc([S+](C)[O-])cc1` (stereo not drawn) [Fensulfothion] was tested, and the “Liver Mean (mean percent inhibition relative to the controls)” value (liver PMPMEase) was 100% and the “Brain Mean (mean percent inhibition relative to the controls)” value (brain PMPMEase) was 100%.

In the case of `COP(=S)(OC)Oc1ccc(SC)c(C)c1` [Fenthion], the “Liver Mean (mean percent inhibition relative to the controls)” value (liver PMPMEase) is reported as 40% and the “Brain Mean (mean percent inhibition relative to the controls)” value (brain PMPMEase) is reported as 17%.

With `COP(=S)(OC)Oc1cc(Cl)c(I)cc1Cl` [Jodfenphos] the “Liver Mean (mean percent inhibition relative to the controls)” value (liver PMPMEase) was 96% and the “Brain Mean (mean percent inhibition relative to the controls)” value (brain PMPMEase) was 69%.

In the case of `COP(=S)(Oc1cc(Cl)c(Br)cc1Cl)c1ccccc1` (stereo not drawn) [Leptophos], the “Liver Mean (mean percent inhibition relative to the controls)” value (liver PMPMEase) is reported as 60% and the “Brain Mean (mean percent inhibition relative to the controls)” value (brain PMPMEase) is reported as 29%.

For `CCOC(=O)CC(SP(=O)(OC)OC)C(=O)OCC` (stereo not drawn) [Malaoxon], the “Liver Mean (mean percent inhibition relative to the controls)” value (liver PMPMEase) was 87% and the “Brain Mean (mean percent inhibition relative to the controls)” value (brain PMPMEase) was 51%.

With `CCOC(=O)CC(SP(=S)(OC)OC)C(=O)OCC` (stereo not drawn) [Malathion] the “Liver Mean (mean percent inhibition relative to the controls)” value (liver PMPMEase) was 53% and the “Brain Mean (mean percent inhibition relative to the controls)” value (brain PMPMEase) was 51%.

With `CCOP(=O)(N=C1SCC(C)S1)OCC` (stereo not drawn) [Mephosfolan] the “Liver Mean (mean percent inhibition relative to the controls)” value (liver PMPMEase) was 100%.

`COC(=O)/C(C)=C/OP(=S)(OC)OC` [Methacrifos] was tested, and the “Liver Mean (mean percent inhibition relative to the controls)” value (liver PMPMEase) was 87% and the “Brain Mean (mean percent inhibition relative to the controls)” value (brain PMPMEase) was 61%.

In the case of `COP(N)(=O)SC` (stereo not drawn) [Methamidophos], the “Liver Mean (mean percent inhibition relative to the controls)” value (liver PMPMEase) is reported as 45% and the “Brain Mean (mean percent inhibition relative to the controls)” value (brain PMPMEase) is reported as 24%.

`COc1nn(CSP(=S)(OC)OC)c(=O)s1` [Methidathion] was tested, and the “Liver Mean (mean percent inhibition relative to the controls)” value (liver PMPMEase) was 78% and the “Brain Mean (mean percent inhibition relative to the controls)” value (brain PMPMEase) was 56%.

In the case of `COP(=S)(OC)Oc1ccc([N+](=O)[O-])cc1` [Methyl-Parathion], the “Liver Mean (mean percent inhibition relative to the controls)” value (liver PMPMEase) is reported as 100% and the “Brain Mean (mean percent inhibition relative to the controls)” value (brain PMPMEase) is reported as 75%.

For `CNC(=O)CSP(=O)(OC)OC` [Omethoate], the “Liver Mean (mean percent inhibition relative to the controls)” value (liver PMPMEase) was 12% and the “Brain Mean (mean percent inhibition relative to the controls)” value (brain PMPMEase) was 33%.

`CCOP(=O)(NC(C)C)Oc1ccc(SC)c(C)c1` (stereo not drawn) [Phenamiphos] was tested, and the “Liver Mean (mean percent inhibition relative to the controls)” value (liver PMPMEase) was 92%.

In the case of `CCOC(=O)C(SP(=S)(OC)OC)c1ccccc1` (stereo not drawn) [Phenthoate], the “Liver Mean (mean percent inhibition relative to the controls)” value (liver PMPMEase) is reported as 96% and the “Brain Mean (mean percent inhibition relative to the controls)” value (brain PMPMEase) is reported as 55%.

With `CCOP(=S)(OCC)SCn1c(=O)oc2cc(Cl)ccc21` [Phosalone] the “Liver Mean (mean percent inhibition relative to the controls)” value (liver PMPMEase) was 79% and the “Brain Mean (mean percent inhibition relative to the controls)” value (brain PMPMEase) was 62%.

In the case of `COC(=O)/C=C(\C)OP(=O)(OC)OC` [Phosdrin], the “Liver Mean (mean percent inhibition relative to the controls)” value (liver PMPMEase) is reported as 70% and the “Brain Mean (mean percent inhibition relative to the controls)” value (brain PMPMEase) is reported as 67%.

In the case of `CCN(CC)C(=O)/C(Cl)=C(/C)OP(=O)(OC)OC` [Phosphamidon], the “Liver Mean (mean percent inhibition relative to the controls)” value (liver PMPMEase) is reported as 69% and the “Brain Mean (mean percent inhibition relative to the controls)” value (brain PMPMEase) is reported as 53%.

`CCN(CC)c1nc(C)cc(OP(=S)(OC)OC)n1` [Pirimiphos-M] was tested, and the “Liver Mean (mean percent inhibition relative to the controls)” value (liver PMPMEase) was 79% and the “Brain Mean (mean percent inhibition relative to the controls)” value (brain PMPMEase) was 42%.

In the case of `CCCSP(=O)(OCC)Oc1ccc(Br)cc1Cl` (stereo not drawn) [Profenofos], the “Liver Mean (mean percent inhibition relative to the controls)” value (liver PMPMEase) is reported as 97% and the “Brain Mean (mean percent inhibition relative to the controls)” value (brain PMPMEase) is reported as 81%.

In the case of `CCCSP(=O)(OCC)Oc1cnn(-c2ccc(Cl)cc2)c1` (stereo not drawn) [Pyraclofos], the “Liver Mean (mean percent inhibition relative to the controls)” value (liver PMPMEase) is reported as 95% and the “Brain Mean (mean percent inhibition relative to the controls)” value (brain PMPMEase) is reported as 82%.

`CNC(=O)C(C)SCCSP(=O)(OC)OC` (stereo not drawn) [Vamidothion] was tested, and the “Liver Mean (mean percent inhibition relative to the controls)” value (liver PMPMEase) was 55%.

For Dicrotophos, the “Liver Mean (mean percent inhibition relative to the controls)” value (liver PMPMEase) was 56%.
